Measured values taken from patent publication US20260327240A1, “1,4-CINEOLE DERIVATIVE AND INTERMEDIATE THEREOF, HERBICIDE CONTAINING SAID DERIVATIVE AS ACTIVE INGREDIENT, METHOD FOR USING HERBICIDE, AND METHOD FOR PREPARING AGROCHEMICAL COMPOSITION” (HOKKO CHEMICAL INDUSTRY CO., LTD., priority 2023, published 2026).

Tests used:
Format in all cases: in vivo
[1] = system: Echinochloa crus-galli var. formosensis; experiment: Test Example 1: herbicidal effect test by soil application in paddy rice; conditions: Echinochloa crus-galli, 336 h, 120 g per 10 ares, 14 days after application, read-out: weed inhibition rate
Outline: (§1)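 Paddy soil in flooded Wagner pots (~3 cm water), weed seeds sown at 0–1 cm depth, greenhouse; emulsifiable concentrate diluted in water and applied by dropper immediately after sowing at 120 g active ingredient per 10 ares. Duplicate pots; weed inhibition rate (%) scored 14 days after application.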

Monochoria vaginalis = experiment: as above; conditions: Pontederia vaginalis, 336 h, 120 g per 10 ares, 14 days after application, read-out: weed inhibition rate
Outline: as §1

Scirpus juncoides [2] = experiment: as above; conditions: Schoenoplectiella juncoides, 336 h, 120 g per 10 ares, 14 days after application, read-out: weed inhibition rate
Outline: as §1

[3] = system: Echinochloa crus-galli var. formosensis; experiment: Test Example 2: herbicidal effect test by application during growth period of paddy rice; conditions: Echinochloa crus-galli, 7 days after sowing, 120 g per 10 ares, 14 days after application, read-out: weed inhibition rate
Outline: (§2)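 Flooded paddy-soil pots (about 3 cm water) sown with 30 seeds per weed species and kept in a greenhouse. Emulsifiable concentrate applied by dropper seven days after sowing at 120 g active ingredient per 10 ares, in duplicate. Herbicidal effect scored 14 days after application.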

Scirpus juncoides [4] = experiment: as above; conditions: Schoenoplectiella juncoides, 7 days after sowing, 120 g per 10 ares, 14 days after application, read-out: weed inhibition rate
Outline: as §2

Measured: inhibition at 1200 g/ha

CCOC(C)O[C@H]1C[C@]2(C)O[C@@]1(C(C)C)C[C@H]2OCc1ccccc1F (stereo partly drawn) [1-213, (1R,2S,4S,5R)-2-(1-ethoxyethoxy)-5-((2-fluorobenzyl)oxy)-1-isopropyl-4-methyl-7-oxabicyclo[2.2.1]heptane]
≥ 80%: all assays above
